Laboratory results reported in patent publication US20250223412A1, “BLOWING AGENT, FOAMING RESIN COMPOSITION, POLYURETHANE UREA RESIN FOAM, AND PRODUCTION METHOD FOR POLYURETHANE UREA FOAM” (MITSUBISHI GAS CHEMICAL COMPANY, INC., priority 2022, published 2025).

assay: Maximum carbon dioxide (CO2) release temperature of amine compound (DSC after CO2 absorption from air); assay type: physicochemical; details: amine compound with CO2 absorbed (air, 23° C., 50% RH, 24 hours); heating 10° C./minute, 23 to 250° C., nitrogen
Procedure: A carbon dioxide detector and a Petri dish were placed in an openable desiccator (inner dimension: 370 mm×260 mm×272 mm). Subsequently the amine compound (5 mmol) was added to the Petri dish in the desiccator and the door was immediately closed to leave the amine compound to stand in the desiccator in an air environment at 23° C. and 50% RH for 24 hours. The initial concentration of carbon dioxide was adjusted to about 400 ppm.
Then the amine compound was taken out of the desiccator to give an amine compound with carbon dioxide absorbed. The maximum carbon dioxide release temperature of the amine compound with carbon dioxide absorbed was measured by subjecting the amine compound to DSC as described below. First, differential scanning calorimetry of the amine compound was performed under conditions of a temperature range of 23 to 250° C., a heating rate of 10° C./minute and a nitrogen atmosphere using a differential thermogravimeter (product name DTG-60 made by Shimadzu Corporation). The temperature at which the amount of heat absorbed due to the desorption of carbon dioxide was the maximum was calculated from the DSC curve obtained, and the temperature was determined as the maximum carbon dioxide release temperature of the amine compound.

Maximum CO2 release temperature | SMILES
114.4 °C | CC1(C)CC(N)CC(C)(CN)C1 (stereo not shown) [IPDA, isophoronediamine]
135.5 °C | NCc1cccc(CN)c1 [MXDA, metaxylylenediamine]
103.4 °C | NCCN [Ethylenediamine, ethylenediamine]
125.7 °C | NCC1CCCC(CN)C1 (stereo not shown) [1,3-BAC, 1,3-bis(aminomethyl)cyclohexane]
